According to paper PMC11111035, “Lemon basil seed-derived peptide: Hydrolysis, purification, and its role as a pancreatic lipase inhibitor that reduces adipogenesis by downregulating SREBP-1c and PPAR-γ in 3T3-L1 adipocytes” (PLOS ONE, 2024):
Ends that are not written are not given here.

Experiments:
[1] = tested on: 3T3-L1 cells; conditions: cited from earlier work
Description: Although we believe there have been no previous studies detailing the […] peptide, it can be considered as a suitable novel peptide capable of addressing the problem of obesity. The literature does contain references to peptides which act in a similar manner to affect preadipocytes during their initial proliferation. […] It was noted by Zhang et al. that th ...

[2] = tested on: 3T3-L1 adipocytes; test: Intracellular lipid accumulation, Oil Red O staining; type: cell-based; conditions: simvastatin 10 μM (S); % of differentiated model (100%); mean ± SE
Description: On the first day, a modified assay proposed by Zhang et al. was carried out for the purpose of 3T3-L1 cells cell culture and differentiation, by initially seeding the 3T3-L1 preadipocyte cells in 6-well plates with a density of 1×10^5 cells per well and then culturing in DMEM with 10% FBS at a temperature of 37°C for 24 h in an atmosphere of 5% carbon dioxide. On the second day, adipocyte differentiation was performed by treating the 3T3-L1 cells with a differentiation medium comprising DMEM with 10% FBS, mixed with 0.5 mM 3-isobutyl-1-methylxanthine (IBMX), 1 μM dexamethasone, and 10 μg/mL insulin. This process took three days, whereupon on day 5 the original medium was removed and a new insulin medium, comprising DMEM with 10% FBS and 10 μg/mL insulin, was used to maintain adipocyte characteristics with a 3-day incubation period. […] Oil Red O staining was then used to evaluate the intracellular lipid accumulation of the mature 3T3-L1 adipocytes. This process required the cells to first be rinsed in PBS and then fixed for 1 h at room temperature with 10% formalin. […] It was then possible to evaluate the accumulation of lipids by dissolving in isopropanol (100%), and to measure the absorbance at 540 nm. The lipid accumulation was expressed as a percentage in comparison to the control.

[3] = tested on: AMPK-α; test: Western blot AMPK-α expression; type: cell-based; conditions: GRSPDTHSG 0.25-1 mM or simvastatin 10 μM
Description: On the first day, a modified assay proposed by Zhang et al. was carried out for the purpose of 3T3-L1 cells cell culture and differentiation, by initially seeding the 3T3-L1 preadipocyte cells in 6-well plates with a density of 1×10^5 cells per well and then culturing in DMEM with 10% FBS at a temperature of 37°C for 24 h in an atmosphere of 5% carbon dioxide. On the second day, adipocyte differentiation was performed by treating the 3T3-L1 cells with a differentiation medium comprising DMEM with 10% FBS, mixed with 0.5 mM 3-isobutyl-1-methylxanthine (IBMX), 1 μM dexamethasone, and 10 μg/mL insulin. This process took three days, whereupon on day 5 the original medium was removed and a new insulin medium, comprising DMEM with 10% FBS and 10 μg/mL insulin, was used to maintain adipocyte characteristics with a 3-day incubation period. […] Once extracted, the proteins of equivalent concentration underwent separation on 12% sodium dodecyl sulfate-polyacrylamide gel electrophoresis (SDS-PAGE) before moving to polyvinylidene fluoride (PVDF) membranes (Millipore, Bedford, MA, USA). […] The membranes were then incubated overnight at a temperature of 4°C with the primary antibodies (PPAR-γ, AMPK-α, SREBP-1C and β-actin) diluted at 1:1000. […] The band intensity could then be measured using ImageJ software (version 1.53; National Institutes of Health, MD, USA). […]

[4] = tested on: 3T3-L1 cells; test: MTT cell viability; type: cell-based; conditions: 72 h, mean ± SE (n = 3), ns
Description: Following incubation, each well received 10 μL of MTT solution (5 mg/mL), before a further 4 h of incubation at a temperature of 37°C. Then 100 μL of DMSO was added to dissolve the MTT-formazan crystals in the viable cells before measuring the absorbance at 540 nm.

[5] = target: T1, porcine pancreatic lipase (Sus scrofa, UniProt P00591); test: Kinetic study of lipase inhibition (Lineweaver-Burk, Dixon plot); type: biochemical; conditions: non-competitive, pNPP, 37°C, pH 7.0, 30 min, mean ± SE (n = 3), read-out: Inhibition constant (Ki)
T1 sequence (P00591 1-450): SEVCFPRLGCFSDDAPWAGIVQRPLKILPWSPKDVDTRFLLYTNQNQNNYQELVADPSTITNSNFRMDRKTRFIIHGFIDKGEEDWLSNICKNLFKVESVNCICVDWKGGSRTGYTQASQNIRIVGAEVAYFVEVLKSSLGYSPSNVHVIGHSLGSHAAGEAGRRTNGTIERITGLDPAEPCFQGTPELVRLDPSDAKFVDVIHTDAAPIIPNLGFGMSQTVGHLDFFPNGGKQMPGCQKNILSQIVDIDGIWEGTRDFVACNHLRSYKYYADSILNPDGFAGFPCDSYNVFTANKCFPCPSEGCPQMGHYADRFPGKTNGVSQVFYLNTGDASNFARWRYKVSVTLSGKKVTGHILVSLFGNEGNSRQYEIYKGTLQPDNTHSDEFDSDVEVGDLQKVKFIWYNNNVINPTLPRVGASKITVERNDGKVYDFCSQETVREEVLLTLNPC
Description: (§1) The determination of lipase inhibition was performed using a method with slight modifications as described by Ketprayoon et al.. The p-nitrophenyl palmitate (pNPP) was served as the substrate, with a solution containing 30 mg of pNPP dissolved in 10 mL of isopropanol. This pNPP solution was then emulsified by combining it with 90 mL of 50 mM Tris-HCl at pH 7.0, 20 μL of Triton X-100 and 100 mg of gum arabic. The assay was initiate the assay by incubating the porcine pancreatic lipase (0.5 mg/mL in 50 mM Tris‐HCl buffer, pH 7.0), pNPP solution and DLSH peptides at a temperature of 37°C for 30 min. Absorbance was then measured at 410 nm for p-nitrophenol with Orlistat employed as the positive control. […] LI=AN−AP×100/AN (3) in which AN indicates the absorbance of the negative control in the absence of the peptide, whereas AP indicates the absorbance of activity when the peptide is present.
The inhibitory mechanism of the lipase inhibitor was investigated using the Lineweaver-Burk plot. […] The reaction mixtures were incubated under a temperature of 37°C and pH 7.0 for 30 min, while initial velocity rates were determined at different substrate concentrations (0.1, 0.2, 0.3, 0.4, and 0.5 mM). […] The Michaelis-Menten constant (Km) and maximum velocity (Vmax) for the lipase inhibition were determined by analyzing the intercepts on the x-axis and y-axis, respectively. […]

[6] = target: T1, porcine pancreatic lipase; test: Lipase inhibitory activity (LI), pNPP substrate; type: biochemical; conditions: synthetic peptide, pH 7.0, 37°C, 30 min
Description: as §1

[7] = tested on: lipase; conditions: cited from earlier work
Description: The Lineweaver-Burk plot was used to evaluated the inhibition mode of the […] peptide obtained from DLSH, and the outcome can be observed in Fig 6(A) (S6 Table). The plot of the inhibition activity was created by altering the concentration of the substrate while maintaining the peptide concentration at the same level throughout (0, 0.1, 0.3 and 0.5 mM). […] The peptide accordingly acted as a lipase inhibitor by taking the form o ...

In the case of GAGVGY [GAGVGY], the “Glucose transport and lipid metabolism” value [1] is given as “enhance the transport of glucose and support the lipid metabolism in 3T3-L1 adipocytes”.
In the case of “CANPHELPNK [peptide from Spirulina platensis protein, pepsin digestion]”, the Triglyceride accumulation [1] is listed as “potentially limiting triglyceride accumulation”.
In the case of “DIVDKIEI [peptide derived from extract of boiled tuna]”, the 3T3-L1 preadipocyte differentiation [1] is listed as “effective in inhibiting 3T3-L1 preadipocyte differentiation” and the “Triglyceride levels and glucose uptake” value [1] is listed as “lowering both triglyceride levels and the uptake of glucose”.
In the case of `CCC(C)(C)C(=O)O[C@H]1C[C@@H](C)C=C2C=C[C@H](C)[C@H](CC[C@@H]3C[C@@H](O)CC(=O)O3)[C@H]21` [Simvastatin, simvastatin], the Lipid accumulation [2] is reported as 51.66 ± 1.81% and the “AMPK expression, in words” value [3] is reported as “AMPK expression level rose”.
For “NPVWKRK [peptide from Spirulina platensis protein, pepsin digestion]”, the Triglyceride accumulation [1] is given as “potentially limiting triglyceride accumulation”.
For “LLVVYPWTQR [synthetic decapeptide derived from C. pyenoidose]”, the Intracellular lipid accumulation ([1]; 600 μg/mL, reduced) is listed as 27.91%.
GRSPDTHSG gave a Cell viability ([4]; 0.25 mM) of 97.02 ± 4.65%, a Cell viability ([4]; 0.50 mM) of 92.90 ± 1.60% and a Cell viability ([4]; 1.00 mM) of 85.96 ± 2.05%. The Ki [5] was 610 ± 90 µM and the IC50 [6] was 255 µM.
For glutathione, the “Mode of lipase inhibition” value [7] is listed as “non-competitive inhibition”.
